Data on two molecules can be found in patent US6793925B2 (priority 1999, dated 2004).

The MIC is the smallest concentration in the dilution series that meets the test's criterion for growth inhibition. A low value points to inhibition by little substance.

Holding throughout (type): cell-based
Common to all, as to conditions: complete inhibition of growth, Sabourauds and dextrose broth, 35° C., 48 hr, highest concentration 20 μg/ml

For one test, the system named is C. parapsilosis. Kind of test: microtiter broth dilution antifungal assay (MIC). Here is the method:
(§1) The presence or amount of a pseudomycin or mixture of pseudomycins can be determined by measuring the antifungal activity of a preparation. Antifungal activity was determined in vitro by obtaining the minimum inhibitory concentration (MIC) of the preparation using a standard agar dilution test or a disc-diffusion test. A preparation of one or more pseudomycins can be an extract of a cell culture, or a more purified mixture. A typical fungus employed in testing antifungal activity is C. albicans. Antifungal activity was considered significant when the test preparation caused 10-12 mm diameter zones of inhibition on Candida albicans x657 seeded agar plates.
(§2) The antifungal studies were conducted using a microtiter broth dilution assay according to National Committee for Clinical Laboratory Standards guidelines in 96 well microtiter plates. Sabourauds and dextrose broth was adjusted to contain 2.5×10^4 conida/ml. Test compound was dissolved in water and tested in two-fold dilutions starting with the highest concentration of 20 μg/ml. Plates were incubated at 35° C. for 48 hr.
(Broth dilution looks for growth in wells or tubes with falling amounts of substance.)

Another test relates to Cryptococcus neoformans. Kind of test: microtiter broth dilution antifungal assay (MIC). Here is the method:
as §1, §2

Another test relates to Aspergillus fumigatus. Kind of test: microtiter broth dilution antifungal assay (MIC). Here is the method: as §1, §2
In another test the test system is Candida albicans. Kind of test: microtiter broth dilution antifungal assay (MIC). Here is the method: as §1, §2
The test system of another test is Histoplasma capsulatum.

Structures are written as SMILES. In brackets after ≈: the same amount, converted by molar mass. Bridge positions count the residues as written; N and C are the ends. Square brackets hold non-standard residues; d marks the D form. Peptide text beside a SMILES is read from it. * marks the point of attachment. Asp(3S-OH) = N[C@H](C(=O)O)[C@H](O)C(=O)O; Thr(4-Cl) = N[C@H](C(=O)O)[C@H](O)CCl; X1 = CCCCCCCCCCCC(O)C(O)CC(=O)*; aThr = C[C@H](O)[C@H](N)C(=O)O; X2 = CCCCCCCCCC(O)CC(=O)*; dDab = NCC[C@@H](N)C(=O)O; Dab = NCC[C@H](N)C(=O)O; Dhb = C/C=C(\N)C(=O)O

As to `C/C=C1\NC(=O)[C@H]([C@H](C)O)NC(=O)[C@H](CCN)NC(=O)[C@H](CCCCN)NC(=O)[C@H](CC(=O)O)NC(=O)[C@@H](CCN)NC(=O)[C@@H](NC(=O)CC(O)CCCCCCCCC)COC(=O)[C@H]([C@H](O)CCl)NC(=O)[C@H]([C@H](O)C(=O)O)NC1=O` (stereo partly drawn) [Pseudomycin B′, pseudomycin B′] (X2-S[dDab]DK[Dab][aThr][Dhb][Asp(3S-OH)][Thr(4-Cl)]; ester 1-C), the MIC is 10 µg/mL (≈ 8.48 µM) against C. parapsilosis; 1.25 µg/mL (≈ 1.06 µM) against Cryptococcus neoformans; >20 µg/mL in the test with Aspergillus fumigatus; 10 µg/mL (≈ 8.48 µM) in the test on Candida albicans; 1.25-5.0 μ/ml against Histoplasma capsulatum.

As to `C/C=C1\NC(=O)[C@H]([C@H](C)O)NC(=O)[C@H](CCN)NC(=O)[C@H](CCCCN)NC(=O)[C@H](CC(=O)O)NC(=O)[C@@H](CCN)NC(=O)[C@@H](NC(=O)CC(O)C(O)CCCCCCCCCCC)COC(=O)[C@H]([C@H](O)CCl)NC(=O)[C@H]([C@H](O)C(=O)O)NC1=O` (stereo partly drawn) [Pseudomycin A′, pseudomycin A′] (X1-S[dDab]DK[Dab][aThr][Dhb][Asp(3S-OH)][Thr(4-Cl)]; ester 1-C), the minimal inhibitory concentration (MIC) is 5.0 µg/mL (≈ 4.04 µM) against C. parapsilosis; 1.25 µg/mL (≈ 1.01 µM) against Cryptococcus neoformans; >20 µg/mL against Aspergillus fumigatus; 2.5 µg/mL (≈ 2.02 µM) against Candida albicans; 5.0 µg/mL (≈ 4.04 µM) in the test with Histoplasma capsulatum.
